Test results taken from patent US4708966A, “Novel anti-inflammatory agents, pharmaceutical compositions and methods for reducing inflammation” (The Procter & Gamble Company, priority 1986, dated 1987).

Test system: adjuvant arthritis (modified Freund's adjuvant)
Experiment: Adjuvant Arthritis - Therapeutic
Assay type: in vivo, Male Sprague-Dawley rats
Conditions: 0.5 mg/kg, 1 x/day, oral, days 20 through 28
Description: Adjuvant Arthritis Methodology
Male Sprague-Dawley rats weighing 167-170 gm are allowed to acclimate to the laboratory for at least 3 days. Ten rats are then assigned to the healthy control group and the remaining rats are assigned to the arthritic group. On day 0, the rats in the arthritic group are injected subcutaneously in the middle of their tail with a modified Freund's adjuvant (MFA) at a dosage of 0.05 ml/100 gm body weight. The MFA is made by grinding Mycobacterium butyricum (Mb) and then mixing with mineral oil at a concentration of 10 mg Mb/ml of mineral oil. This is mixed in an Omni mixer for 45 minutes.
Paw volumes and body weights are determined on days -1, 6, 13, 19, 26, and 29. On day 19, paw volume changes from day -1 are determined for the arthritic group. The rats with paw volume changes≥0.50 ml but ≤2.50 ml are randomized by paw volume changes into the treatment groups on day 20. […] On day 29, two representative rats from each treatment group are photographed, paw volumes and body weights are determined, and then the rats are sacrificed with CO2 and x-rays are taken.
The radiographs are used to grade bone resorption. Bone resorption is graded in 20 areas of the fore and hind paws. The areas for grading on the hind paw are: distal femur end, proximal tibia and tibula, distal end of the tibia and the small bone under the tibia, calcaneous, tarsus, and metatarsus. The areas on the fore paws are: radius, ulna, carpus, and metacarpus. Each area is given a grade of 0 (no resorption) or 1 (resorption) for possible grade of 20 of each animal.

COc1ccc2c(c1)c(CC(=O)O)c(C)n2C(=O)c1ccc(Cl)cc1 [Indomethacin, reference compound]
Body Weights % Increase: 7%
Bone Resorption % Inhibition: 15%
Paw Volume % Decrease: 43%
